The values below come from US8592422B2, “Bicyclic triazole and pyrazole lactams as allosteric modulators of mGluR5 receptors” (Vanderbilt University, priority 2010, dated 2013).

For the assay, the target named is T1, human mGluR5a receptor (Homo sapiens, UniProt P41594).
T1 construct: cDNA subcloned into pcDNA3.1(-)
Description: Cell-based functional Ca2+ mobilization assay (FDSS), potentiation of glutamate EC20 response. The conditions noted are these: for EC50 / pEC50: HEK cells transfected with human mGluR5 (H10H or H12H), in presence of EC20 glutamate; for EC50: read-out: EC50; for Emax / Emax (%): maximum % effect in concentration-response curve, as percent of response to maximally effective glutamate. Here is the method: Human embryonic kidney (HEK) cells transfected with rat mGluR5 were plated in clear bottom assay plates for assay in a Functional Drug Screening System (FDSS). In the alternative assay, HEK cells transfected with human mGluR5 were plated for assay in the FDSS. In some cases the HEK cells transfected with human mGluR5 were the H10H cell line. Alternatively, the HEK cells transfected with human mGluR5 were the H12H cell line. […] The cells were loaded with a Ca^2+-sensitive fluorescent dye (e.g., Fluo-4), and the plates were washed and placed in the FDSS instrument. After establishment of a fluorescence baseline for twelve seconds, the compounds of the present invention were added to the cells, and the response in cells was measured. Alternatively, in various further aspects, after establishment of a fluorescence baseline for about three seconds, the compounds of the present invention were added to the cells, and the response in cells was measured. Five minutes later, an mGluR5 agonist (e.g., glutamate, 3,5-dihydroxyphenylglycine, or quisqualate) was added to the cells, and the response of the cells was measured.
The above described assay operated in two modes. In the first mode, a range of concentrations of the present compounds were added to cells, followed by a single fixed concentration of agonist. If a compound acted as a potentiator, an EC50 value for potentiation and a maximum extent of potentiation by the compound at this concentration of agonist was determined by non-linear curve fitting. In the second mode, several fixed concentrations of the present compounds were added to various wells on a plate, followed by a range of concentrations of agonist for each concentration of present compound; the EC50 values for the agonist at each concentration of compound were determined by non-linear curve fitting. A decrease in the EC50 value of the agonist with increasing concentrations of the present compounds (a leftward shift of the agonist concentration-response curve) is an indication of the degree of mGluR5 potentiation at a given concentration of the present compound. An increase in the EC50 value of the agonist with increasing concentrations of the present compounds (a rightward shift of the agonist concentration-response curve) is an indication of the degree of mGluR5 antagonism at a given concentration of the present compound. The second mode also indicates whether the present compounds also affect the maximum response to mGluR5 to agonists.
The mGluR5 activity was determined using the metabotropic glutamate receptor activity assays in human embryonic kidney cells as described herein, wherein the human embryonic kidney cells were transfected with human mGluR5. The compounds in Table 1 were synthesized with methods identical or analogous to those shown herein. The requisite starting materials were commercially available, described in the literature, or readily synthesized by one skilled in the art of organic synthesis. The compound number given in Table I corresponds to the compound number in Table II and the structure given therein.
Human mGluR5a cDNA in pCMV6-XL6 mammalian expression plasmid was purchased from OriGene Technologies, Inc. (catalogue number SC326357) and subcloned into pcDNA3.1(−). Human embryonic kidney (HEK) 293A cells were then transfected with human mGluR5a pcDNA3.1(−) using LipofectAmine-2000 (Invitrogen) and monoclones were selected and tested for functional response using a Ca^2+ mobilization assay. Monoclones were named for the species (“H” for human) plus the location on the plate (e.g. “10H”).
HEK cells transfected with the human mGluR5a receptor (H10H or H12H cell line) were plated at 15,000 cells/well in clear-bottomed poly-D-lysine-coated assay plates (BD Falcon) in glutamate-glutamine-free growth medium and incubated overnight at 37° C. and 5% CO2.

T1 sequence (P41594 21-1180 isoform P41594-2 limits assumed): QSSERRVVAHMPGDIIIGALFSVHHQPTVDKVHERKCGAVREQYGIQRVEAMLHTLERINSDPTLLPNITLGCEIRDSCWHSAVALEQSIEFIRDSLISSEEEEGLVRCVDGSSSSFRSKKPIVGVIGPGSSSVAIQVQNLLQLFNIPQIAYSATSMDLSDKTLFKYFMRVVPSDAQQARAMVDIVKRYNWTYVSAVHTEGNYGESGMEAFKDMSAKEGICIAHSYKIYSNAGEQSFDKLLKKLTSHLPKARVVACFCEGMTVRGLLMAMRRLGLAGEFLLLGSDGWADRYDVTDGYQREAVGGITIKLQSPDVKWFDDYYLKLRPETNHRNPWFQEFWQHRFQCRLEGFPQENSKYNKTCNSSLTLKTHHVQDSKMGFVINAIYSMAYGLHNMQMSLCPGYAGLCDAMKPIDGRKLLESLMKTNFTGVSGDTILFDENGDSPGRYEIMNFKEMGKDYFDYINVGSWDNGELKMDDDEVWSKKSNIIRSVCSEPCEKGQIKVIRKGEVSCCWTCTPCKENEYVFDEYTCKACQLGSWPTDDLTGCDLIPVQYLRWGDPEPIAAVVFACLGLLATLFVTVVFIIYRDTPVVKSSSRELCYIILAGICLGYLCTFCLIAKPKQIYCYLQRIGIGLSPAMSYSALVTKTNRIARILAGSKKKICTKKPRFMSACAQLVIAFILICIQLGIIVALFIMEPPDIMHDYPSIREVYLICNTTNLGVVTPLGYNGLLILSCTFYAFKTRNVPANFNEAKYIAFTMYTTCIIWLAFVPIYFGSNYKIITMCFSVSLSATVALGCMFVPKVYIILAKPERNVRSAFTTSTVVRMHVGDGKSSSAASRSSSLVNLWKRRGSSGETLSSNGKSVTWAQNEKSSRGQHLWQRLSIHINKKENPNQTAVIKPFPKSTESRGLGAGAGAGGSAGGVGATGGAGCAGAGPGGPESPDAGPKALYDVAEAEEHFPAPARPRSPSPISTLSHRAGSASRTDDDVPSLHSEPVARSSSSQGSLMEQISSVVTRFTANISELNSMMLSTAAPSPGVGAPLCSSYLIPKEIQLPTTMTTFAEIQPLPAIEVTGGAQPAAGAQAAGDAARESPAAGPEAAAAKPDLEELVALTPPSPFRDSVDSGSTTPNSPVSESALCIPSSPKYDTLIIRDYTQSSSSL

Broadly, the EC50 is the concentration that produces a half-maximal response. Broadly, the Emax is the greatest response seen or fitted, relative to the assay's reference. On to `COc1cnc(C)nc1N1CCn2nc(COc3ccccc3)cc2C1=O` [Example 119], for which the concentration for a half-maximal effect (EC50) turned out to be 2300 nM and the Emax is 72%.
The pEC50 is the EC50 on a negative log10 scale, so that one unit is a factor of ten. For `COc1cc(N2CCn3nc(COc4ccccc4)cc3C2=O)nc(OC)n1` [Example 122], the pEC50 was found to be 6.91, the EC50 was determined as 120 nM and the “Emax (%)” value is recorded as 61%.
Turning to `COc1cnnc(N2CCn3nc(COc4ccccc4)cc3C2=O)c1` [Example 125], the EC50 is more than 10000 nM and the maximal effect (Emax) worked out at 48%.
In the case of `COc1cc(OC)nc(N2CCn3nc(COc4ccccc4)cc3C2=O)n1` [Example 127], the negative-log EC50 (pEC50) was found to be 6.68, the EC50 was 210 nM and the “Emax (%)” value came to 63%.
As for `CC1Cn2nc(COc3ccccc3)cc2C(=O)N1CC1CC1` (stereo not shown) [Example 136], the pEC50 worked out at 6.13, the EC50 amounted to 741 nM and the “Emax (%)” value is 56%.
`CC1Cn2nc(COc3ccccc3)cc2C(=O)N1c1ccc(F)cn1` (stereo not shown) [Example 139]: the pEC50 turned out to be 6.05, the EC50 amounted to 891 nM and the “Emax (%)” value is recorded as 43%.
As for `CC1Cn2nc(COc3ccccc3)cc2C(=O)N1c1ccc(F)cc1` (stereo not shown) [Example 142], the pEC50 is given as 7.19, the concentration for a half-maximal effect (EC50) is 65 nM and the “Emax (%)” value stood at 68%.
With `COc1nccc(N2C(=O)c3cc(COc4ccccc4)nn3CC2C)n1` (stereo not shown) [Example 145], the pEC50 was determined as 5.85, the EC50 worked out at 1410 nM and the “Emax (%)” value is given as 59%.
In the case of `COc1nc(N2C(=O)c3cc(COc4ccccc4)nn3CC2C)ncc1F` (stereo not shown) [Example 147], the pEC50 is listed as 6.27, the EC50 stood at 537 nM and the “Emax (%)” value came out at 72%.
Regarding `Cc1cccc(N2C(=O)c3cc(COc4ccccc4)nn3CC2C)c1` (stereo not shown) [Example 153], the pEC50 was determined as 7.22, the EC50 is 60 nM and the “Emax (%)” value amounted to 71%.
`CC1Cn2nc(COc3ccccc3)cc2C(=O)N1c1ccc(F)cc1` (stereo not shown) [Example 157]: the pEC50 came to 6.24, the EC50 was 575 nM and the “Emax (%)” value stood at 63%.
Take `O=C1c2cc(COc3cccnc3)nn2CCN1c1ccc(F)cc1` [Example 158]: the concentration giving a half-maximal response (EC50) was found to be 3090 nM and the Emax turned out to be 69%.
As to `O=C1c2cc(COc3ccccn3)nn2CCN1c1ccc(F)cc1` [Example 159], the pEC50 was determined as 6.32, the EC50 worked out at 479 nM and the “Emax (%)” value worked out at 69%.
In the case of `O=C1c2cc(COc3cncc(F)c3)nn2CCN1c1ccc(F)cc1` [Example 161], the EC50 stood at 1320 nM and the Emax was 68%.
As to `O=C1c2cc(COc3ccccn3)nn2CCN1CC1CC1` [Example 162], the 50% effective concentration (EC50) was 2510 nM and the Emax worked out at 47%.
`O=C1c2cc(COc3ccncc3)nn2CCN1CC1CC1` [Example 163]: the concentration giving a half-maximal response (EC50) amounted to 2240 nM and the Emax came out at 63%.
For `N#Cc1cccc(OCc2cc3n(n2)CCN(CC2CC2)C3=O)c1` [Example 164], the negative logarithm of the EC50 (pEC50) is on record as less than 4.52, the EC50 is more than 30200 nM and the “Emax (%)” value was determined as 28%.
Regarding `O=C1c2cc(COc3ccc(F)cc3)nn2CCN1c1ccc(F)cc1` [Example 165], the pEC50 is 6.98, the EC50 was 105 nM and the “Emax (%)” value was determined as 71%.
Take `O=C1c2cc(COc3ccc(F)cc3)nn2CCN1CC1CC1` [Example 167]: the negative-log EC50 (pEC50) came to 6.58, the EC50 was 263 nM and the “Emax (%)” value came to 64%.
As for `Cc1cccc(OCc2cc3n(n2)CCN(CC2CC2)C3=O)c1` [Example 168], the negative logarithm of the EC50 (pEC50) was found to be 5.18, the EC50 stood at 6610 nM and the “Emax (%)” value came out at 30%.
For the molecule `N#Cc1cccc(OCc2cc3n(n2)CCN(c2ccc(F)cc2)C3=O)c1` [Example 169], the pEC50 turned out to be 6.51, the EC50 stood at 309 nM and the “Emax (%)” value turned out to be 62%.
On to `O=C1c2cc(COc3cccnc3)nn2CCN1CC1CC1` [Example 170], for which the pEC50 was less than 5.00, the EC50 was more than 10000 nM and the “Emax (%)” value is recorded as 45%.
Regarding `O=C1c2cc(COc3ccccn3)nn2CCN1c1ccc(F)cn1` [Example 172], the pEC50 is listed as 5.99, the EC50 was determined as 1020 nM and the “Emax (%)” value is 64%.
Take `Cc1cccc(OCc2cc3n(n2)CCN(c2ccc(F)cc2)C3=O)n1` [Example 173]: the pEC50 is given as less than 5.00, the EC50 was more than 10000 nM and the “Emax (%)” value is reported as 31%.
`Cc1cc(OCc2cc3n(n2)CCN(c2ccc(F)cc2)C3=O)cc(C)n1` [Example 175]: the EC50 was more than 30200 nM and the Emax is 22%.
Turning to `O=C1c2cc(COc3ccncc3)nn2CCN1c1ccc(F)cn1` [Example 176], the pEC50 worked out at 5.75, the EC50 is 1780 nM and the “Emax (%)” value was found to be 64%.
In the case of `Cc1cccc(OCc2cc3n(n2)CCN(c2ccc(F)cn2)C3=O)c1` [Example 177], the pEC50 is 6.42, the EC50 came to 380 nM and the “Emax (%)” value is listed as 61%.
In the same order, the values of `Cc1cc(OCc2cc3n(n2)CCN(c2ccc(F)cc2)C3=O)ncc1F` [Example 180] are 5.77, 1700 nM and 53%.
In the same order, the values of `Cc1nccc(OCc2cc3n(n2)CCN(c2ccc(F)cc2)C3=O)n1` [Example 182] are 5.49, 3240 nM and 36%.
Consider `Cc1ccnc(OCc2cc3n(n2)CCN(c2ccc(F)cc2)C3=O)c1` [Example 184], for which the pEC50 was 6.45, the EC50 was 355 nM and the “Emax (%)” value was found to be 61%.
Take `Cc1ccnc(OCc2cc3n(n2)CCN(c2ccc(F)cc2)C3=O)n1` [Example 186]: the pEC50 is recorded as less than 4.52, the EC50 was more than 30200 nM and the “Emax (%)” value is listed as 30%.
In the same order, the values of `O=C1c2cc(COc3cccc(F)c3)nn2CCN1c1ccc(F)cc1` [Example 188] are 6.83, 148 nM and 66%.
Consider `Cc1ccc(OCc2cc3n(n2)CCN(c2ccc(F)cc2)C3=O)cc1` [Example 192], for which the concentration for a half-maximal effect (EC50) came to 240 nM and the Emax stood at 57%.
Consider `Cc1cc(OCc2cc3n(n2)CCN(c2ccc(F)cc2)C3=O)ncn1` [Example 196], for which the negative-log EC50 (pEC50) was less than 5.00, the EC50 was more than 10000 nM and the “Emax (%)” value worked out at 37%.
As to `Cc1ccnc(OCc2cc3n(n2)CCN(c2ccc(F)cc2)C3=O)c1F` [Example 198], the pEC50 is recorded as 5.76, the EC50 was 1740 nM and the “Emax (%)” value is on record as 61%.
Consider `O=C1c2cc(COc3ccncn3)nn2CCN1c1ccc(F)cc1` [Example 199], for which the pEC50 stood at 5.43, the 50% effective concentration (EC50) came to 3720 nM and the “Emax (%)” value is reported as 60%.
In the case of `O=C1c2cc(COc3ccnnc3)nn2CCN1c1ccc(F)cc1` [Example 201], the pEC50 is listed as less than 5.00, the EC50 is more than 10000 nM and the “Emax (%)” value is given as 46%.
For `Cc1cc(N2CCn3nc(COc4ccccn4)cc3C2=O)ccc1F` [Example 203] the same measures were 6.78, 166 nM and 66%.
With `Cc1nc(N2CCn3nc(COc4ccccn4)cc3C2=O)ccc1F` [Example 205], the pEC50 stood at 6.41, the EC50 was 389 nM and the “Emax (%)” value was found to be 55%.
